Experimental data: PMC11988671, “SIRT7 Is a Lysine Deacylase with a Preference for Depropionylation and Demyristoylation” (International Journal of Molecular Sciences, 2025)
Where “and” joins values, the source holds several entries; their conditions need not be identical. Identical values can stand only once.

Columns and labels:
SIRT7 [1] = molecular target: T1, SIRT7 (Mus musculus, UniProt Q8BKJ9); assay: NAM inhibition assay (in vitro deacylation, LC-MS/MS); settings: for IC50: IC50, NAM (relative IC50), wild-type SIRT7
T1 sequence (Q8BKJ9 1-402): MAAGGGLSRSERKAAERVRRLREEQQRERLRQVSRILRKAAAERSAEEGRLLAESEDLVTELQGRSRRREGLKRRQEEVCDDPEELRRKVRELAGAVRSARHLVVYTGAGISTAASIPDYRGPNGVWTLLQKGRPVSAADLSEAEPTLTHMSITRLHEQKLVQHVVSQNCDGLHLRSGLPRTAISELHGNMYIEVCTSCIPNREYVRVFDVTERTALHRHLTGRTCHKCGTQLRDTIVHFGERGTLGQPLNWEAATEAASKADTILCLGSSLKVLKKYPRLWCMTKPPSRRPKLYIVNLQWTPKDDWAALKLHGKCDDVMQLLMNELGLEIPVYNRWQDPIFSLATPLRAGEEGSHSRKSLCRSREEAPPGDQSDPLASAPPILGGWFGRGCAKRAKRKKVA

SIRT7 [2] = molecular target: T1, SIRT7; assay: In vitro deacylation assay of acyl-modified H3K18 peptides by SIRT7 (LC-MS/MS); type: biochemical; parameters: HaloTag (N, cleaved yes); made in house; host or cells: E. coli K12 KRX; settings: 8 μM peptide (glutaryl 100 µM), 1.0 mM NAD^+, RNA, 24 h, 37 °C
Protocol: (§1) In the case of the SIRT1 enzymatic reaction, 8 µM peptide was incubated in 50 µL reaction buffer containing 10 mM NaCl, 10 mM KCl, 20 mM Tris-HCl pH 8.0, 1.0 mM NAD^+, and 1 mM DTT, with or without 1 µg recombinant SIRT1. The reaction mixtures were incubated for 24 h for SIRT7 or 2 h for SIRT1 at 37 °C.
(§2) The general conditions for electrospray ionization-MS were as follows: nebulizer gas, N2, delivered at 50 psi; nebulizer gas temperature, 250 °C; capillary voltage, 3500 V; and collision gas, G1 grade N2 (Taiyo Nippon Sanso Corporation, Tokyo, Japan).

SIRT1 [3] = molecular target: T2, SIRT1 (Mus musculus, UniProt Q923E4); assay: In vitro deacetylation assay of H3K9Ac peptide by SIRT1 (LC-MS/MS); type: biochemical; settings: 8 µM peptide, 1.0 mM NAD^+, 2 h, 37 °C
T2 construct: HaloTag (N, cleaved yes); made in house; host or cells: E. coli K12 KRX
T2 sequence (Q923E4 1-737): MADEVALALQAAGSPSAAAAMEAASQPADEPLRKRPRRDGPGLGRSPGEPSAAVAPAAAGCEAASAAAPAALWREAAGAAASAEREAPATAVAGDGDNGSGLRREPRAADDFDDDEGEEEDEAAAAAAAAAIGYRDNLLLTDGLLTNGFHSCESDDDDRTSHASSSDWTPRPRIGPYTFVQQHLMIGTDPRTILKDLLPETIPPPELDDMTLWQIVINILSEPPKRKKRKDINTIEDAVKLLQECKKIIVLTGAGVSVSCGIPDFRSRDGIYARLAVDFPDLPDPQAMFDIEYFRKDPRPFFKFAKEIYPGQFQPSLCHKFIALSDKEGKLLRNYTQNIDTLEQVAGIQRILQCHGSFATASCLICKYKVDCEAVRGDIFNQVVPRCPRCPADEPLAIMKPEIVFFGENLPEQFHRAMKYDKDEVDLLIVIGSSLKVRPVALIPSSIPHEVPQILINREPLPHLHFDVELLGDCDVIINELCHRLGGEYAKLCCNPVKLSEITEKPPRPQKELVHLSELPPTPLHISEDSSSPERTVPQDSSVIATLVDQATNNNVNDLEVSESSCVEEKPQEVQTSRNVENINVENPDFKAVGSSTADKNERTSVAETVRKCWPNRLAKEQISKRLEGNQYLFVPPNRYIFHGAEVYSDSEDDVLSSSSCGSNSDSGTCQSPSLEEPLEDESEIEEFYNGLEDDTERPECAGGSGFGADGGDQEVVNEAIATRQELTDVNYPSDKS
Protocol: as §1, §2

HEK293T cells = assay: NAD^+ assay in cells treated with FK866; type: cell-based
Protocol: HEK293T and Hepa1–6 cells were treated with the NAMPT inhibitor FK866 (500 pM and 8 nM, respectively), and NAD^+ and total NAD^+/NADH cellular levels were determined using an NAD^+/NADH Assay Kit-WST (#N509; Dojindo Laboratories, Kumamoto, Japan). Total NAD^+/NADH and NADH concentrations in one sample were calculated from the calibration curve, then the NAD^+ level was determined by subtracting the NADH value from the total NAD^+/NADH level.

[4] = tested on: SIRT7-dependent DDB1 deacetylation in HEK293T cells; assay: SIRT7-dependent DDB1 deacetylation (IP and Western blot); type: cell-based; settings: FK866 500 pM
Protocol: (§3) HEK293T cells were treated with FK866 or DMSO for 24 h and transfected with the indicated plasmids using JetPRIME reagents (Polypus, Illkirch-Graffenstaden, France) for an additional 24 h. The cells were lysed in IP buffer (20 mM Tris-HCl pH 7.4, 200 mM NaCl, 2.5 mM MgCl2, 0.05% NP-40, 1 mM PMSF, and protease inhibitor cocktail (Nacalai Tesque)) supplemented with 5 mM NAM and 2.5 µM trichostatin A. The lysate was incubated on ice for 20 min and subsequently sonicated twice at 4 °C with a 20 s interval at 26% amplitude using a Sonifier SFX-150 (Branson Ultrasonics) to disrupt the cells. Following sonication, the lysate was centrifuged at 14,000× g for 15 min at 4 °C to separate cellular debris. For immunoprecipitation, 2 mg protein from each sample was incubated with anti-HA- or anti-DYKDDDDK (FLAG)-tagged beads (Fujifilm Wako Pure Chemical Corp.) for 18 h at 4 °C with gentle rotation. After washing with IP buffer, the proteins were eluted in SDS sample buffer, and lysine acetylation was detected by Western blot with an anti-acetylated lysine antibody.
(§4) For Western blot, proteins were separated by SDS-PAGE and transferred to an Immobilon-P PVDF membrane (Merck Millipore, Burlington, MA, USA), which was probed with primary and secondary antibodies. […]

[5] = tested on: SIRT1-dependent PPARα deacetylation in HEK293T cells; assay: SIRT1-dependent PPARα deacetylation (IP and Western blot); type: cell-based; settings: FK866 500 pM
Protocol: as §3, §4

[6] = tested on: Cd36 and Cidec expression in Hepa1–6 cells; assay: Cellular gene expression (real-time quantitative PCR); type: cell-based; settings: FK866 8 nM, 48 h
Protocol: Hepa1–6 cells were exposed to 8 nM FK866 for 48 h, and the cells were incubated without fetal bovine serum for the final 24 h of treatment. Subsequently, total RNA was extracted from the cells utilizing the Sepasol RNA I Super Reagent (Nacalai Tesque). Quantitative reverse transcription (RT)-PCR was conducted using a PrimeScript RT Reagent Kit (RR047A; TaKaRa Bio, Inc., Kusatsu, Japan) followed by TB Green Premix Ex TaqII (RR820A; TaKaRa Bio, Inc.) and an ABI ViiA 7 Real-Time PCR System (Applied Biosystems, Inc., Foster City, CA, USA). The relative expression level of each gene was normalized to that of TATA box-binding protein (Tbp). The following primer sequences were used: Cd36, forward 5′-TTGGCCAAGCTATTGCGACA-3′ and reverse 5′-CTGGAGGGGTGATGCAAAGG-3′; Cidec, forward 5′-GCTGAAGGGGCAGAAGTGGA-3′ and reverse 5′-GCGCTTGGCCTTGTAGCAGT-3′; and Tbp, forward 5′-CCCCTTGTACCCTTCACCAAT-3′ and reverse 5′-GAAGCTGCGGTACAATTCCAG-3′.

SIRT1 [7] = settings: compared with own H3K9Ac value; read-out: Km, NAD^+ for SIRT1, value reported previously; cited from earlier work
SIRT4 = tested on: SIRT4; parameters: method as in PMID 23746352; settings: read-out: Km of SIRT4 for NAD^+; cited from earlier work
SIRT5 = tested on: SIRT5; parameters: method as in PMID 23028781; settings: read-out: Km of SIRT5 for NAD^+; cited from earlier work
SIRT7-DNA and SIRT7-RNA = tested on: SIRT7-DNA and SIRT7-RNA; parameters: method as in PMID 35939806; settings: compared with own H3K18Ac value in presence of RNA; read-out: Km, NAD^+ for SIRT7, previously reported value; cited from earlier work
[8] = succinyl H3K18 peptide substrate

Compound: NC(=O)c1cccnc1 [NAM, Nicotinamide]
- IC50 (SIRT7 [1]; acetyl H3K18 peptide substrate): 23 µM and 23.2 µM
- IC50 (SIRT7 [1]; butyryl H3K18 peptide substrate): 613 ± 63.8 µM
- IC50 (SIRT7 [1]; myristoyl H3K18 peptide substrate): 286 ± 25.1 µM
- IC50 (SIRT7 [1]; octanoyl H3K18 peptide substrate): 1110 ± 216 µM
- IC50 (SIRT7 [1]; palmitoyl H3K18 peptide substrate): 544 ± 83.7 µM
- IC50 (SIRT7 [1]; propionyl H3K18 peptide substrate): 787 ± 118 µM
- IC50 (SIRT7 [1]; [8]): 1230 ± 268 µM
- NAM inhibition of the desuccinylation reaction (SIRT7 [1]; [8]): did not completely inhibit

Compound: NH2-KSTGGKAPRK^GlutarylQLATKAARKS-COOH [glutaryl peptide]
- Hydrolysis of acyl H3K18 peptide by SIRT7 (SIRT7 [2]): not detected

Compound: NH2-ARTKQTARK^AcetylSTGGKAPRKQLC-COOH [H3K9Ac]
- Loss of H3K9Ac peptide and formation of deacetylated H3K9 peptide with recombinant SIRT1 (SIRT1 [3]): detected

Compound: NH2-KSTGGKAPRK^SuccinylQLATKAARKS-COOH [succinyl H3K18 peptide]
- Hydrolysis of acyl H3K18 peptide by SIRT7 (SIRT7 [2]): catalyzed the hydrolysis

Compound: NH2-KSTGGKAPRK^OctanoylQLATKAARKS-COOH [octanoyl H3K18 peptide]
- Hydrolysis of acyl H3K18 peptide by SIRT7 (SIRT7 [2]): catalyzed the hydrolysis

Compound: NH2-KSTGGKAPRK^MyristoylQLATKAARKS-COOH [myristoyl H3K18 peptide]
- Hydrolysis of acyl H3K18 peptide by SIRT7 (SIRT7 [2]): catalyzed the hydrolysis

Compound: O=C(/C=C/c1cccnc1)NCCCCC1CCN(C(=O)c2ccccc2)CC1 [FK866]
- Cellular NAD^+ levels (HEK293T cells): decreased
- SIRT7-mediated DDB1 deacetylation [4]: abolished
- Deacetylation of PPARα by SIRT1 [5]: not abolished
- Cd36 expression [6]: significantly decreased
- Cidec expression [6]: significantly decreased

Compound: NH2-KSTGGKAPRK^ButyrylQLATKAARKS-COOH [butyryl H3K18 peptide]
- Hydrolysis of acyl H3K18 peptide by SIRT7 (SIRT7 [2]): catalyzed the hydrolysis

Compound: NC(=O)c1ccc[n+]([C@@H]2O[C@H](COP(=O)([O-])OP(=O)(O)OC[C@H]3O[C@@H](n4cnc5c(N)ncnc54)[C@H](O)[C@@H]3O)[C@@H](O)[C@H]2O)c1 [NAD^+, Nicotinamide adenine dinucleotide]
- Km (SIRT1 [7]): 29 µM
- Km (SIRT4): 35 µM
- Km (SIRT5): 980 µM
- Km (SIRT7-DNA and SIRT7-RNA): 480 µM
